Data as given in patent US20060052432A1, “Pharmaceutical compositions with improved dissolution” (priority 2002, published 2006).
Where a name gives a salt, the structure may show the parent alone. Blank lines part the entries; values can stand above or below the compound they belong to.

Tests used:
pKa = format: physicochemical
[1] = commercially available neutral form; cited from earlier work
[2] = In vitro dissolution studies in simulated gastric fluid; format: physicochemical
Experimental: 1. […] The celecoxib salt was ground using mortar and pestle until fine powder was formed. […] 2. Formulation Preparation • a. Fresh PLURONIC excipient was dispensed into a mortar. If initially a solid at room temperature, the PLURONIC was ground until a smooth powder was formed. • b. If HPC was to be added, it was dispensed after the PLURONIC excipient. […] 3. Dissolution Assay • a. A water bath was set up at 37 degrees C. • b. Simulated gastric fluid in the fasted state (SGF) was prepared at pH 1.7 and diluted five times with deionized water. […] The simulated gastric fluid was diluted five times to simulate the effect of drinking a glass of water with the medication. The SGF was pre-heated to 37 degrees C. • c. The formulation was placed in a 20 mL scintillation vial. • d. A 10 mm x 3 mm stir bar was added. • e. Diluted SGF was added to the formulation. […] The vial was placed in the water bath and allowed to stir. • g. […] The first ⅔ of filtrate was discarded as waste and the last ⅓ was collected into an eppendorf tube. 0.1 mL of the collected filtrate was immediately transferred to an autosampler vial and diluted ten times with 0.9 mL of methanol. The autosampler vials were crimp sealed and submitted for content analysis using high performance liquid chromatography with ultraviolet detection. In Vitro Dissolution Studies of PLURONIC Excipients - Results: […]

[3] = Pharmacokinetic studies in rats, 5 mg/kg oral doses; format: in vivo, male Sprague-Dawley rats; settings: gelatin capsule, sodium salt blended 1:4 with polyvinylpyrrolidone, compared with CELEBREX
Experimental: The sodium salt form (from Example 6) was compared with CELEBREX powder in terms of absorption in rats (FIGS. 4A and 4B).
Solids were placed in size 9 gelatin capsules (Torpac) and dosed via gavage needle, followed by oral gavage of 1 mL water. CELEBREX granulation was transferred from commercial 200 mg capsules. The sodium salt was blended with polyvinylpyrrolidone (e.g. PovidoneK30) in a 1:4 mixture. The plots are averages of plasma levels at each of the time points from plasma of 5 rats.

[4] = Administration of celecoxib compositions to dogs (plasma pharmacokinetics); settings: single oral dose, 5 mpk, male dogs
[5] = according to WO 01/78724; cited from earlier work
Solubility in water = format: physicochemical
[6] = Solubility of celecoxib sodium salt in the presence of polyvinylpyrrolidone; format: physicochemical; settings: added to aqueous PVP, or water added to dry blend with PVP

pKa (pKa): ~11
Structure (SMILES): Cc1onc(-c2ccccc2)c1-c1ccc(S(N)(=O)=O)cc1 [Valdecoxib, 4-(5-methyl-3-phenyl-4-isoxazolyl)benzene sulfonamide]
solubility in water (in words) [1]: essentially insoluble in water

Structure (SMILES): CCOCCOCCO [Transcutol P]
effect on dissolution of celecoxib free acid [2]: does not enhance dissolution of the free acid

peak level of the drug in plasma [3]: faster peak level of the drug in plasma
maximum blood serum concentration reached faster than for celecoxib [4]: 40%
Structure (SMILES): Cc1ccc(-c2cc(C(F)(F)F)nn2-c2ccc(S(N)(=O)=O)cc2)cc1 [celecoxib sodium salt, sodium salt of 4-[5-(4-methylphenyl)-3-(trifluoromethyl)-1H-pyrazol-1-yl]benzenesulfonamide]

solubility (Solubility in water): < 1 µg/mL
dissolution in aqueous polyvinylpyrrolidone [6]: did not dissolve
Structure (SMILES): Cc1ccc(-c2cc(C(F)(F)F)nn2-c2ccc(S(N)(=O)=O)cc2)cc1 [celecoxib, 4-[5-(4-methylphenyl)-3-(trifluoromethyl)-1H-pyrazol-1-yl]benzenesulfonamide]
solubility in Transcutol P [5]: 350 mg/g
solubility in water (in words) [1]: essentially insoluble in water
ability to be maintained as a supersaturated solution (Solubility in water): cannot be maintained as a supersaturated solution for any appreciable time
